Assays:
[1] = system: HE cells; assay: Single-cell RNAseq of treated HE cells at day 2 of subculture; assay type: cell-based, human
Method: Sorted HE, EHT and HSC-like cells as well magnetically selected (Miltenyi Biotec) cord blood CD34^+ cells were plated onto Matrigel (16 μg/cm^2, Corning)-coated 96-well flat bottom plates in HE medium (Ditadi, A. & Sturgeon, C. M. Directed differentiation of definitive hemogenic endothelium and hematopoietic progenitors from human pluripotent stem cells. Methods 101, 65-72 (2016)) with 1% penicillin-streptomycin and kept in a humidified incubator at 37° C., 5% CO2, 4% O2 overnight. The following day (day 0), wells were washed twice with PBS and fresh HE medium was added, together with UK5099 (10 μM) or DCA (3 mM), where indicated. On day 1 and 2 (as indicated), cells were washed twice with PBS 0.04% UltraPure BSA and collected after a 2-minute incubation at 37° C. with StemPro Accutase Cell Dissociation Reagent. Cells were spun down, resuspended in PBS 0.04% UltraPure BSA, counted (yield between 8,000-18,000 cells) and library preparation was conducted according to the Chromium Single Cell 3′ Reagent kit v3 instructions (10× Genomics). Sequencing was performed on a NOVASeq 6000 from Illumina with the run parameters (28-8-0-91) recommended by 10× Genomics with a final loading concentration of 300 pM of the pooled libraries. Human Umbilical Cord Blood samples were collected from Skine University Hospital (Lund and Malmo) and Helsingborg Hospital with informed consents according to guidelines approved by the regional ethical committee.
The data was processed and analyzed using Seurat v3.1.0, where cells were allowed to have up to 20% mitochondrial reads prior to log-normalization and finding the top 500 variable genes using the “vst” method. Cell cycle scores were calculated and the data was scaled regressing on mitochondrial content and the difference of the S and G2M score. Principal components were calculated prior to calculating a UMAP. Pseudotime trajectories describing two developmental routes were identified in our EHT dataset using Slingshot (Street, K. et al. Slingshot: cell lineage and pseudotime inference for single-cell transcriptomics. BMC Genomics 19,477 (2018)) along which the cells were ordered. The cells were then binned along each trajectory where the cell type composition of each bin was calculated as percentages. Cord blood CD34+ cells were mapped to our data and labeled using scCoGAPS (Stein-O'Brien, G. L. et al. Decomposing Cell Identity for Transfer Learning across 23 Cellular Measurements, Platforms, Tissues, and Species. Cell Syst 8, 395-411.e8 (2019)). CS13 data from Zeng et al. (Zeng, Y. et al. Tracing the first hematopoietic stem cell generation in human embryo by single-cell RNA sequencing. Cell Res 1-14 (2019)) was read and processed to make a UMAP from which the cells they name as “AEC” and “Hem” were identified. These 99 cells were mapped to our data and labeled using SCMAP59. Carnegie Stage 13 data from Zeng et al. was mapped to our EHT dataset using scCoGAPS where 10 patterns were identified, named according to their respective weights (as shown in Table 1) and then projected using projectR. […] The CS 13 dorsal aorta dataset from Zeng et al. was mapped onto our EHT dataset using scCoGAPS. The patterns resulting from this analysis were classified as the cell types described by Zeng et al.
Each cell was assigned to the group that achieved the highest weight. […]

[2] = system: HE cells; assay: Single HE cell clone assay on OP9-DL1 stroma; assay type: cell-based, human; settings: day 14; total of 552 single cells per condition
Method: Sorted HE (40,000), EHT (30,000) and HSC-like (5-20,000) cells were plated onto Matrigel (16 μg/cm2, Corning)-coated 96-well flat bottom plates in HE medium with 1% penicillin-streptomycin and kept in a humidified incubator at 37° C., 5% C02, 4% 02 overnight. The following day (day 0), wells were washed twice with PBS and fresh HE medium was added, together with 2-DG (1 mM), UK5099 (10 μM), DCA (3 mM or 10 mM), TSA (60 nM), TCP (300 nM), ACSS2i (5 μM), C646 (10 μM), CP-640186 (5 μM) or Atorvastatin (0.5 μM), where indicated. Media was changed and drugs were added every 2 days and cells were kept in a humidified incubator at 37° C., 5% CO2, 20% O2 for 6-7 days. Pictures were taken using an Olympus IX70 microscope equipped with a CellSens DP72 camera and CellSens Standard 1.6 software (Olympus). For single cell subcultures, single HE cells were directly sorted with a BD FACSAriaIII onto OP9-DL1 stroma in flat-bottom 96-well plates with 120 μl OP9 medium (OptiMEM medium with Glutamax (Invitrogen) with 10% FCS, 1% penicillin-streptomycin solution (Thermo Fisher Scientific) and 1% 2-mercaptoethanol (Invitrogen)) with SCF, IL-6, IL-11, IGF1 and EPO, and with or without 10 μM UK, or 3 mM or 10 mM DCA. […] At day 14, the wells were collected and scored for GPA+ clones by flow cytometry, using a BD LSRII.

Structure (SMILES)	less treated HE cells in cluster 7 compared to the control ([1]; day 2, DCA 3 mM)	GPA+ clones [2]	LSD1, GFI1 and GFI1B expression ([1]; as compared to DCA-treated cells)	average expression levels of erythroid lineage genes (RYK, KLF3, TAL1, GATA2, ZFPM1, KLF1, NFE2, ANK1, HBQ1) ([1]; clusters 6 and 7)	percentage of cells in cluster 6 ([1]; day 2)	more treated HE cells in cluster 7 compared to the control ([1]; day 2, UK5099 10 μM)
O=C(O)C(Cl)Cl [DCA, dichloroacetate]	35%	7 clones	–	–	–	–
N#CC(=Cc1cn(-c2ccccc2)c2ccccc12)C(=O)O [UK5099, 2-Cyano-3-(1-phenyl-1H-indol-3-yl)-2-propenoic acid]	–	12 clones	higher levels	higher	constant between conditions	38%

— patent US20250129334A1, “LINEAGE SPECIFICATION DURING STEM CELL TRANSITION” (Amniotics AB, priority 2021, published 2025)
